Results on one molecule are retold here after patent publication US11931365B2, “Use of PPAR-delta agonists in the treatment of disease” (Reneo Pharmaceuticals, Inc., priority 2022, dated 2024).

Experiment [1] concerns rat muscle cell lines. Briefly: Fatty acid oxidation in muscle cell lines. The class given is cell-based.
For experiment [2], the system named is PPARδ regulated genes (CPT1b, PGC-1α). In words: In vivo expression of PPARδ regulated genes in muscle. The note with it: mice muscle.
For experiment [3], the system named is VLCAD. Briefly: VLCAD enzymatic activity in cultured fibroblasts from FAOD patients with VLCAD deficiency. The experiment is classed as cell-based, human. The note with it: fibroblasts from symptomatic VLCAD deficient patients.
The target in experiment [4] is T1, hPPARδ (Homo sapiens, UniProt Q03181).
T1 construct: expressed in transfected cells; host or cells: Jump-In GripTite HEK293
T1 sequence (Q03181 1-441): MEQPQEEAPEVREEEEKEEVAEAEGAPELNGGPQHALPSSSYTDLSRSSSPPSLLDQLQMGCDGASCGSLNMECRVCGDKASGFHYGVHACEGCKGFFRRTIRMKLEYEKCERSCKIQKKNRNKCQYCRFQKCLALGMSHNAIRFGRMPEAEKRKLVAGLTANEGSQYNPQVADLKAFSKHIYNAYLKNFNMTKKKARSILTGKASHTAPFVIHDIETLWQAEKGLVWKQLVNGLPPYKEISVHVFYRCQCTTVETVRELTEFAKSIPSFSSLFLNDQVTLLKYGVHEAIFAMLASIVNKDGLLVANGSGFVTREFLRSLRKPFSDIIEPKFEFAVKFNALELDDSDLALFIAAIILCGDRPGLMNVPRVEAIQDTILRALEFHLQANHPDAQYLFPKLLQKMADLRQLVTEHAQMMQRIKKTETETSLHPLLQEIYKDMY
Briefly: PPAR receptor transactivation assay (UAS-bla Gal4, HEK293). The experiment is classed as cell-based. As to the method: (§1) Compound I was tested on all three human PPAR subtypes (hPPAR): hPPARα, hPPARγ, and hPPARδ in vitro assays testing for such activity.
(§2) Compound I was tested on all three human PPAR subtypes (hPPAR): hPPARα, hPPARγ, and hPPARδ. All assays were repeated at least three times for each subtype.
(§3) The genes of interest were synthesized and cloned into an appropriate Jump-In™ retargeting vector following the User Guide of the Jump-in™ T-REx™ HEK293 Retargeting Kit (ThermoFisher Catalog No A15008). For example, the vector will be used to transfect and retarget the Jump-In™ HEK293 GripTite™ parental cell line. Stable pools will be antibiotic-selected for about 21 days and tested for target gene expression by functional assay.
(§4) Jump-In™ GripTite™ HEK293 parental cells were plated at 60-80% confluency in a T-75 flask in growth medium without antibiotics and transfected with a 1:1 ratio of expression construct and R4 integrase expression construct (20 μg DNA total) using Lipofectamine® LTX (50 μL) and PLUS™ Reagent (20 μL). Following a 48 hours incubation, cells were selected with 600 μg/mL Geneticin® and 10 μg/mL Blasticidin for ˜21 days in growth medium.
(§5) Jump-In™ GripTite™ HEK293 rPPAR Alpha, Delta or Gamma UAS-bla-Gal4 cell pools were plated in a 384-well plate format (20,000 cells per well) in OptiMeM without FBS in replicates (n=4). Cells were allowed to adhere for 8 hours before addition of Compound I (1 mM top concentration, 3-fold dilutions, 10-point titration). After 16 hours, the cells were loaded with LiveBLAzer®, a fluorescent BLA substrate that gives a blue/green readout of expressing/non-expressing cells, respectively. The blue/green readout was measured on a fluorescent plate reader (Tecan Safire II).

The target of experiment [5] is T2, hPPARα (Homo sapiens, UniProt Q07869).
T2 construct: expressed in transfected cells; host or cells: Jump-In GripTite HEK293
The experiment is described as above. The class given is cell-based. Conditions: PPARα. As to the method:
as §1, §2, §3, §4, §5

Experiment [6] deals with T3, hPPARγ (Homo sapiens, UniProt P37231).
T3 construct: expressed in transfected cells; host or cells: Jump-In GripTite HEK293
The description is as above. The experiment is classed as cell-based. The procedure: as §1, §2, §3, §4, §5

Experiment [7] has as its system healthy male volunteers, leg immobilization. Briefly: Phase 1 placebo-controlled study in healthy volunteers with single limb immobilization. Conditions: 100 mg twice daily for 28 days. The experiment is classed as in vivo, human. As to the method: In a prior clinical trial in healthy volunteers, Compound I was administered at dose of 100 mg twice daily for 28 days in healthy volunteers during and after a single limb immobilization (see NCT01524406). The study was conducted to evaluate the impact of Compound I on the recovery of muscle atrophy from leg immobilization, and improvements in cross section area (CSA) and muscle strength parameters expected in patients treated with study drug compared to those given placebo.
This phase 1, randomized, parallel group, placebo-controlled study was conducted at 2 centers in the United States. Fifty participants were planned for enrollment, 25 per group; participants could be replaced upon sponsor approval.
Screening was conducted 28 days before study start; eligibility was reviewed again at prespecified times during the study. Ambulatory, non-smoking, healthy male volunteers 30 to 55 years of age with a Body Mass Index (BMI) from 18 to 30 kg/m2 were recruited for the study. Key exclusion criteria included abnormal laboratory values at screening, a recent history of body weight fluctuations, positive urine drug screens, drug dependency or illicit drug use, professional sport participation within 30 days of screening, donation of whole blood within 90 days of dosing, and donation of plasma within 30 days of dosing. Concomitant medications within 14 days of dosing were not allowed unless approved by the sponsor. Those who had enrolled in another clinical trial within 90 days or had previously received Compound II were not allowed to participate.
Participants were randomly assigned 1:1 to receive either Compound II (100 mg BID) or matching placebo for 28 days using a computer generated randomization schedule provided by the sponsor. The principal investigator, study center staff, and participants were blinded to treatment; the protocol was amended so that sponsor personnel were not blinded. This change was made to allow investigation of observations concerning adherence to the protocol, discussed further in the pharmacodynamic results. Compound II and placebo were provided as capsules identical in appearance, taken orally with 240 ml of water prior to meals. Study drug was administered at the study site on Days 1 (PM dose), 6 (AM dose), 13 (PM dose), and 14, 15, 16, 29 (AM doses). At all other times study drug was self-administered just before breakfast and dinner. Dates and times were recorded in a diary, with compliance determined from the diaries and capsule counts. Study drug supplies were packaged according to the randomization codes by a contract research organization. Each dispensed bottle was labeled with the randomization number. Individual capsules were re-dispensed from these bottles by the study site staff, maintaining the blind. The total study duration for each subject was 42 days. Participants stayed overnight from Day 1 and Days 13 to 16.
Standardized meals, beverages and snacks were provided during the domicile periods. On Day 1, participants were leg-immobilized using a knee brace with […] on the left leg to allow driving. Walking crutches were provided to prevent weight bearing on the immobilized leg. An accelerometer was issued at screening and was used to count the number of steps per day. Participants were to walk 4000 to 6000 steps each day for the duration of the leg immobilization period, and recorded accelerometer readings each evening before bedtime. The brace was removed on Day 14, and participants resumed normal physical activity gradually from Days 16 to 29. After stopping study drug on Day 29, participants were to resume regular daily activity gradually for another 2 weeks. Consumption of prescribed medications or over the counter products was prohibited from 14 days prior to dosing and throughout the study, with the exception of the treatment of an adverse event. Participants were not to consume alcohol or caffeine containing food and beverages 3 days before each study visit and domicile periods. […]

T3 sequence (P37231 whole entry): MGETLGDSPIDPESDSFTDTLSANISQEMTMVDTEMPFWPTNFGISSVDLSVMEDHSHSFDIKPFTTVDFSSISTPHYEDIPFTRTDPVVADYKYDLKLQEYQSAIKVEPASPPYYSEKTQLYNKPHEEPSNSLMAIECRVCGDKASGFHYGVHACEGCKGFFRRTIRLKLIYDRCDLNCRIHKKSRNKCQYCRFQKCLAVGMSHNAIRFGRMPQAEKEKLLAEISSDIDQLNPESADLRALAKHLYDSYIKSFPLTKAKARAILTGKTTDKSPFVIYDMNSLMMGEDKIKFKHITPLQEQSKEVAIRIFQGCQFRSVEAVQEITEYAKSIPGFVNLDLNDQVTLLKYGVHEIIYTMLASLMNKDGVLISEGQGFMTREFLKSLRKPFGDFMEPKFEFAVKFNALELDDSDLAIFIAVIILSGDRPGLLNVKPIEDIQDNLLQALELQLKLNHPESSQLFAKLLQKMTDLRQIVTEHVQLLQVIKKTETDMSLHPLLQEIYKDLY
T2 sequence (Q07869 whole entry): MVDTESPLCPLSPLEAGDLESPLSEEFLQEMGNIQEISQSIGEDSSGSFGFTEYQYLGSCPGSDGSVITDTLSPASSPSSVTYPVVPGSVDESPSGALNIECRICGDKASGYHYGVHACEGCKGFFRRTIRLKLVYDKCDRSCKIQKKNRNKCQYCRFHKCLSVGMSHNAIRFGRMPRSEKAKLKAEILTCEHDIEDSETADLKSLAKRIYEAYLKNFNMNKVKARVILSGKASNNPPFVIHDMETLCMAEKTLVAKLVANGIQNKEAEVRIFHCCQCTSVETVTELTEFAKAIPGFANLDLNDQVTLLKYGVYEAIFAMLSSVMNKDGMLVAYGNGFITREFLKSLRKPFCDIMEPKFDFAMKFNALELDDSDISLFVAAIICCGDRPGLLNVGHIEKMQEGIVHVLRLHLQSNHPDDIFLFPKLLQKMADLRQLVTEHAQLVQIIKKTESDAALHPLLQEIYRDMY

As for `Cc1cc(OC/C=C(/c2ccc(F)cc2)c2ccc(C#CCN3CCOCC3)cc2)ccc1OCC(=O)O` [Compound I, (E)-2-(4-((3-(4-fluorophenyl)-3-(4-(3-morpholinoprop-1-yn-1-yl)phenyl)allyl)oxy)-2-methylphenoxy)acetic acid], the fatty acid oxidation result in experiment [1] was “dose-dependent increase”. In addition, the “expression patterns of PPARδ regulated genes (CPT1b, PGC-1α)” value in experiment [2] was “altered the expression patterns”. In experiment [3], the VLCAD enzymatic activity result is “increased”. Also, the results for the agonist type result in experiment [4] (PPARδ), in experiment [5] and in experiment [6] (PPARγ) were “full agonist”, “partial agonist” and “partial agonist”, respectively. The “selectivity for PPARδ over PPARα” value in experiment [4] (PPARδ over PPARα) turned out to be 100 fold. For the same molecule, the “selectivity for PPARδ over PPARγ” value in experiment [4] (PPARδ over PPARγ) was 400 fold. Moreover, the EC50 in experiment [6] (human PPARγ) is over 10 µM. Moreover, the “expression of PPAR regulated target genes (ANGPTL4) and fatty acid metabolism genes (PDK4) in muscle biopsies” value in experiment [7] was “significant increases”. Further, the “mean knee extension strength from baseline vs placebo” value in experiment [7] (Day 21) is given as “significant increase”.

In general, EC50 refers to the midpoint of the concentration-response curve.
